# Data as given in ChEMBL document CHEMBL1144475, “Design, synthesis, and evaluation of inhibitors for severe acute respiratory syndrome 3C-like protease based on phthalhydrazide ketones or heteroaromatic esters” (J Med Chem, 2007).
# pIC50: −log10 of the molar value. Non-standard residues stand in square brackets, D forms with d. Residues, ends and D or L forms follow the SMILES beside them. *: point of attachment. Ala(2-oxopyrrolidin-3S-yl) = N[C@@H](C[C@@H]1CCNC1=O)C(=O)O; X1 = Clc1cncc(O*)c1; Bn = c1ccc(C*)cc1
# Tests used:
# [1] = biological target: Replicase polyprotein 1a (Severe acute respiratory syndrome-related coronavirus) (UniProt P0C6U8); test: Inhibition of SARS coronavirus His-3C-like protease at 100 uM
# [2] = biological target: Replicase polyprotein 1a (Severe acute respiratory syndrome-related coronavirus) (UniProt P0C6U8); test: Inhibition of SARS coronavirus 3C-like protease at 1 uM
# Replicase polyprotein 1a = Replicase polyprotein 1a (Severe acute respiratory syndrome-related coronavirus, UniProt P0C6U8); test: Inhibition of SARS coronavirus 3C-like protease
SMILES,inhibition [1],inhibition [2],pIC50 (Replicase polyprotein 1a)
O=C(Oc1cccc(Cl)n1)c1cccs1,< 10%,,
O=C(Oc1cccnc1Cl)c1cccs1,20%,,
O=C(Oc1cccc(Cl)c1)c1ccco1,40%,,
O=C(Oc1cncc(Br)c1)c1ccco1,99%,98%,7.30
O=C(Oc1cncc(Cl)c1)c1ccc[nH]1,65%,,
Cc1ccc(OC(=O)c2cccs2)c([N+](=O)[O-])n1,15%,,
O=C(Nc1ccc(Cl)cn1)c1cccs1,< 10%,,
O=C(Oc1ccccn1)c1cccs1,13%,,
O=C(OCc1cccnc1)c1cccs1,19%,,
O=C(Oc1cncc(Cl)c1)c1ccccc1,92%,,
CC(=O)N[C@H](C(=O)N[C@H](C(=O)N[C@@H](CC(C)C)C(=O)N[C@@H](C[C@@H]1CCNC1=O)C(=O)c1cccs1)[C@@H](C)O)C(C)C,23%,,
O=C(Oc1cncc(Cl)c1)c1cscn1,,98%,6.57
O=C(Oc1cncc(Cl)c1)c1cc2ccccc2s1,,96%,7.02
O=C(Oc1cncc(Cl)c1)c1ccco1,99%,,7.22
O=C(Nc1ccccn1)c1cccs1,< 10%,,
O=C(Oc1cncc(Cl)c1)c1cc2ccccc2[nH]1,,99%,7.19
O=C(Nc1cccnc1Cl)c1cccs1,< 10%,,
Clc1cncc(OCc2ccco2)c1,11%,,
O=C(Oc1ccncc1)c1cccs1,< 10%,,
Cc1ncccc1OC(=O)c1cccs1,< 10%,,
O=C(Nc1ccc(F)cn1)c1cccs1,< 10%,,
Cc1cccc(OC(=O)c2cccs2)n1,38%,,
CC(=O)N[C@H](C(=O)N[C@H](C(=O)N[C@@H](CC(C)C)C(=O)N[C@@H](C[C@@H]1CCNC1=O)C(=O)Oc1cncc(Cl)c1)[C@@H](C)OCc1ccccc1)C(C)C (Ac-VT(Bn)L[Ala(2-oxopyrrolidin-3S-yl)]-X1),< 10%,,

SMILES,inhibition [1],inhibition [2],pIC50 (Replicase polyprotein 1a)
Cc1ccc(OC(=O)c2cccs2)nc1,< 10%,,
O=S(=O)(Nc1cccnc1)c1cccs1,< 10%,,
O=Cc1cc2ccccc2[nH]1,39%,,
O=C(Nc1cccnc1)c1cccs1,13%,,
CC(=O)N[C@H](C(=O)N[C@H](C(=O)N[C@@H](CC(C)C)C(=O)N[C@@H](C[C@@H]1CCNC1=O)C(=O)c1cccs1)[C@@H](C)OCc1ccccc1)C(C)C,< 10%,,
O=Cc1ccco1,23%,,
O=Cc1ccc(-c2ccc(Cl)cc2)o1,70%,,
O=C(Cc1cccnc1)c1cccs1,< 10%,,
O=Cc1cscn1,36%,,
O=C(Oc1cncc(Cl)c1)c1ccoc1,89%,,
O=Cc1cccs1,< 10%,,
O=C(Cc1cncc(Br)c1)c1ccco1,< 10%,,
O=C(Oc1ccc(Cl)nc1)c1cccs1,13%,,
O=C(OCc1cncc(Br)c1)c1ccco1,90%,,
O=C(Oc1cncc(Cl)c1)c1cc2ccccc2o1,94%,,6.77
COc1cccc(C(=O)Oc2cncc(Cl)c2)c1,,97%,
O=C(Oc1cncc(Cl)c1)c1ccc(-c2ccc(Cl)cc2)o1,,98%,7.20
O=C(Oc1ccco1)c1cccnc1,80%,,
O=C(Nc1ccncc1)c1cccs1,< 10%,,
O=C(Oc1cccnc1)c1cccs1,91%,,
Cc1ccc(OC(=O)c2cccs2)cn1,< 10%,,
CC(=O)N[C@H](C(=O)N[C@H](C(=O)N[C@@H](CC(C)C)C(=O)N[C@@H](Cc1ccccc1)C(=O)Cn1[nH]c(=O)c2ccccc2c1=O)[C@@H](C)OCc1ccccc1)C(C)C,72%,,
